# Calls of active or inactive are those of the source. The calls are words filed in the database; no cut-off is given here.
# Legend:
# [1] = Inhibition of cell proliferation in HUVEC cells by MTT assay; assay type: toxicity, cell-based; details: human
# HCC1806 = experiment: Inhibition of cell proliferation in human HCC1806 cells by MTT assay; assay type: functional, cell-based
# [2] = Inhibition of cell proliferation in human HL7702 cells by MTT assay; assay type: toxicity, cell-based; details: HL7702 (L02) cells
# HCC1937 [3] = experiment: Inhibition of cell proliferation in human HCC1937 cells by MTT assay; assay type: functional, cell-based
# MDA-MB-231 = experiment: Inhibition of cell proliferation in human MDA-MB-231 cells by MTT assay; assay type: functional, cell-based
# RNA [4] = experiment: Inhibition of wild-type G1 of MDM2 expressed in human HCC1937 cells upto 1 uM incubated for 24 hrs by luciferase reporter assay; assay type: cell-based
# RNA [5] = experiment: Induction of wild-type G5 of MDMX expressed in human HCC1937 cells upto 1 uM incubated for 24 hrs by luciferase reporter assay; assay type: cell-based; details: filed as activator
# HCC1937 [6] = experiment: Downregulation of MDMX level in human HCC1937 cells upto 3 uM incubated for 24 hrs by Western blot analysis; assay type: functional, cell-based
# HCC1937 [7] = experiment: Effect on cell proliferation in human HCC1937 cells overexpressing BLM assessed as cell survival at 6 uM; assay type: functional, cell-based
# HCC1937 [8] = experiment: Downregulation of MDM2 level in human HCC1937 cells upto 3 uM incubated for 24 hrs by Western blot analysis; assay type: functional, cell-based
# Quadruplex RNA [9] = experiment: Binding affinity to NRAS RNA G-quadruplex (unknown origin) assessed as thermal stability by measuring increase in melting temperature by FRET assay; assay type: nucleic-acid assay
# HCC1937 [10] = experiment: Induction of apoptosis in siMDMX-treated human HCC1937 cells at 6 uM (reference value: 55.8 %); assay type: functional
# HCC1937 [11] = experiment: Upregulation of MDMX level in siMDM2-treated human HCC1937 cells upto 6 uM by Western blot analysis; assay type: functional, cell-based
# RNA [12] = experiment: Binding affinity to G5 of MDMX (unknown origin) at 10 uM by CD spectrum assay; assay type: nucleic-acid assay; details: Homo sapiens, filed as activator
# HCC1937 [13] = experiment: Effect on cell proliferation in human HCC1937 cells overexpressing BLM assessed as cell survival at 6 uM relative to control; assay type: functional; details: read-out: Activity
# HCC1937 [14] = experiment: Upregulation of MDMX level in siMDMX-treated human HCC1937 cells upto 6 uM by Western blot analysis; assay type: functional, cell-based
# DNA = experiment: Binding affinity to biotin-labeled ss26 DNA (unknown origin) immobilized on SA biosensor assessed as dissociation constant by BLI assay; assay type: nucleic-acid assay
# Quadruplex RNA [15] = experiment: Binding affinity to biotin-labeled NRAS RNA G-quadruplex (unknown origin) immobilized on SA biosensor assessed as dissociation constant by BLI assay; assay type: nucleic-acid assay
# HCC1937 [16] = experiment: Downregulation of MDM2 level in human HCC1937 cells upto 6 uM incubated for 24 hrs by Western blot analysis; assay type: functional, cell-based
# RNA [17] = experiment: Binding affinity to FAM/TAMRA-labeled G5 of MDMX (unknown origin) assessed as thermal stability by measuring increase in melting temperature by FRET assay; assay type: nucleic-acid assay; details: Homo sapiens
# RNA [18] = experiment: Binding affinity to TAMRA-labeled wild-type G5 of MDMX transfected in human HCC1937 cells at 3 uM incubated for 6 hrs by BG4 antibody based analysis; assay type: cell-based; details: filed as activator
# HCC1937 [19] = experiment: Inhibition of apoptosis in siMDM2-treated human HCC1937 cells at 6 uM (reference value: 55.8 %); assay type: functional
# HCC1937 [20] = experiment: Downregulation of MDM2 level in siMDMX-treated human HCC1937 cells upto 6 uM by Western blot analysis; assay type: functional, cell-based
# HCC1937 [21] = experiment: Induction of apoptosis in siMDM2-treated human HCC1937 cells assessed as increase in cleaved caspase-3 level upto 6 uM by Western blot analysis; assay type: functional, cell-based
# Quadruplex DNA [22] = experiment: Binding affinity to biotin-labeled c-myc DNA G-quadruplex (unknown origin) immobilized on SA biosensor assessed as dissociation constant by BLI assay; assay type: nucleic-acid assay
# RNA [23] = experiment: Binding affinity to TAMRA-labeled wild-type G1 of MDM2 transfected in human HCC1937 cells at 3 uM incubated for 6 hrs by BG4 antibody based analysis; assay type: cell-based
# HCC1937 [24] = experiment: Induction of apoptosis in siMDMX-treated human HCC1937 cells assessed as increase in cleaved caspase-3 level upto 6 uM by Western blot analysis; assay type: functional, cell-based
# RNA [25] = experiment: Binding affinity to G1 of MDM2 (unknown origin) at 10 uM by CD spectrum assay; assay type: nucleic-acid assay; details: Homo sapiens
# HCC1937 [26] = experiment: Inhibition of cell proliferation in Nutlin3a-treated human HCC1937 cells by MTT assay; assay type: functional, cell-based
# Quadruplex DNA [27] = experiment: Binding affinity to c-myc DNA G-quadruplex (unknown origin) assessed as thermal stability by measuring increase in melting temperature by FRET assay; assay type: nucleic-acid assay
# HCC1937 [28] = experiment: Inhibition of cell proliferation in siMDM2-treated human HCC1937 cells by MTT assay; assay type: functional, cell-based; details: dose <= 6.0 µM
# HCC1937 [29] = experiment: Inhibition of cell proliferation in siMDMX-treated human HCC1937 cells by MTT assay; assay type: functional, cell-based
# dsDNA = experiment: Binding affinity to biotin-labeled ds26 DNA (unknown origin) immobilized on SA biosensor assessed as dissociation constant by BLI assay; assay type: nucleic-acid assay
# RNA [30] = experiment: Inhibition of wild-type G1 of MDM2 expressed in human HCC1937 cells upto 3 uM incubated for 24 hrs by luciferase reporter assay; assay type: cell-based
# RNA [31] = experiment: Binding affinity to TAMRA-labeled G5 mutant of MDMX transfected in human HCC1937 cells at 3 uM incubated for 6 hrs by BG4 antibody based analysis; assay type: cell-based
# HCC1937 [32] = experiment: Upregulation of MDMX level in human HCC1937 cells upto 6 uM incubated for 24 hrs by Western blot analysis; assay type: functional, cell-based
# HCC1937 [33] = experiment: Effect on H2AX phosphorylation at Ser139 in human HCC1937 cells upto 6 uM incubated for 24 hrs by Western blot analysis; assay type: functional, cell-based
# RNA [34] = experiment: Induction of G5 mutant of MDMX expressed in human HCC1937 cells upto 3 uM incubated for 24 hrs by luciferase reporter assay; assay type: cell-based
# HCC1937 [35] = experiment: Effect on DNAPKcs phosphorylation at Ser2056 in human HCC1937 cells upto 6 uM incubated for 24 hrs by Western blot analysis; assay type: functional, cell-based
# RNA [36] = experiment: Inhibition of G1 mutant of MDM2 expressed in human HCC1937 cells upto 3 uM incubated for 24 hrs by luciferase reporter assay; assay type: cell-based
# HCC1937 [37] = experiment: Induction of apoptosis in human HCC1937 cells assessed as increase in cleaved caspase-3 level upto 6 uM incubated for 24 hrs by Western blot analysis; assay type: functional, cell-based
# RNA [38] = experiment: Induction of wild-type G5 of MDMX expressed in human HCC1937 cells upto 3 uM incubated for 24 hrs by luciferase reporter assay; assay type: cell-based; details: filed as activator
# HCC1937 [39] = experiment: Downregulation of MDM2 mRNA level in human HCC1937 cells upto 3 uM by qPCR analysis; assay type: functional, cell-based
# HCC1937 [40] = experiment: Upregulation of MDMX mRNA level in human HCC1937 cells upto 3 uM by qPCR analysis; assay type: functional, cell-based
# HCC1937 [41] = experiment: Inhibition of cell proliferation in human HCC1937 cells assessed as decrease in cell survival at 6 uM relative to control; assay type: functional
# RNA [42] = experiment: Binding affinity to TAMRA-labeled G1 mutant of MDM2 transfected in human HCC1937 cells at 3 uM incubated for 6 hrs by BG4 antibody based analysis; assay type: cell-based
# RNA [43] = experiment: Binding affinity to FAM/TAMRA-labeled G1 of MDM2 (unknown origin) assessed as thermal stability by measuring increase in melting temperature by FRET assay; assay type: nucleic-acid assay; details: Homo sapiens
# RNA [44] = experiment: Binding affinity to biotin-labeled G1 of MDM2 (unknown origin) immobilized on SA biosensor assessed as dissociation constant by BLI assay; assay type: nucleic-acid assay, Homo sapiens
# RNA [45] = experiment: Binding affinity to biotin-labeled G5 of MDMX (unknown origin) immobilized on SA biosensor assessed as dissociation constant by BLI assay; assay type: nucleic-acid assay, Homo sapiens
smiles,measurement,setting,value
Cc1ccc(CSC(=N)N)cc1,IC50,[1],> 50 µM
same,IC50,HCC1806,> 50 µM
same,IC50,[2],> 50 µM
same,IC50,HCC1937 [3],> 50 µM
same,IC50,MDA-MB-231,> 50 µM
C[n+]1ccc(-c2c3nc(c(-c4cc[n+](C)cc4)c4ccc([nH]4)c(-c4cc[n+](C)cc4)c4ccc([nH]4)c(-c4cc[n+](C)cc4)c4nc2C=C4)C=C3)cc1,inhibition,RNA [4],Active
same,Activity,RNA [5],Active
N=C(N)SCc1c2ccccc2nc2ccccc12,IC50,[1],> 50 µM
same,IC50,HCC1806,> 50 µM
same,IC50,[2],> 50 µM
same,IC50,HCC1937 [3],> 50 µM
same,IC50,MDA-MB-231,> 50 µM
N=C(N)SCc1c2ccccc2c(Br)c2ccccc12,IC50,[1],20.3 µM
same,IC50,HCC1806,3.5 µM
same,IC50,[2],24.5 µM
same,IC50,HCC1937 [3],6.4 µM
same,IC50,MDA-MB-231,8.2 µM
Cc1c2ccccc2c(CSC(=N)N)c2ccccc12,Activity,HCC1937 [6],Active
same,Activity,HCC1937 [7],inactive
same,IC50,[1],3.5 µM
same,Activity,HCC1937 [8],Active
same,IC50,HCC1806,6.9 µM
same,IC50,[2],5 µM
same,ΔTm,Quadruplex RNA [9],-0.2 °C
same,IC50,HCC1937 [3],6.4 µM
same,IC50,MDA-MB-231,2.1 µM
N=C(N)SCc1ccc([N+](=O)[O-])cc1,IC50,[1],> 50 µM
same,IC50,HCC1806,> 50 µM
same,IC50,[2],> 50 µM
same,IC50,HCC1937 [3],> 50 µM
same,IC50,MDA-MB-231,> 50 µM
Brc1c2ccccc2c(C[P+](c2ccccc2)(c2ccccc2)c2ccccc2)c2ccccc12.[Br-],Activity,HCC1937 [10],~70.4%
same,Activity,HCC1937 [11],Active
same,Activity,RNA [12],Active
same,viability at 6 µM,HCC1937 [13],85.3%
same,Activity,HCC1937 [14],Active
same,Kd,DNA,10.8 µM
same,Kd,Quadruplex RNA [15],24 µM
same,Activity,HCC1937 [16],Active
same,ΔTm,RNA [17],30 °C
same,Activity,RNA [18],Active
same,inhibition at 6 µM,HCC1937 [19],30.6%
same,Activity,HCC1937 [20],Active
same,Activity,HCC1937 [21],inactive
same,Kd,Quadruplex DNA [22],15.6 µM
same,Activity,RNA [23],Active
same,Activity,HCC1937 [24],Active
same,Activity,RNA [25],Active
same,inhibition,HCC1937 [26],inactive
same,ΔTm,Quadruplex DNA [27],18 °C
same,inhibition,HCC1937 [28],inactive
same,inhibition,HCC1937 [29],Active
same,Kd,dsDNA,23.5 µM
same,inhibition,RNA [30],Active
same,Activity,RNA [31],inactive
same,Activity,HCC1937 [32],Active
same,Activity,HCC1937 [33],inactive
same,Activity,RNA [34],inactive
same,Activity,HCC1937 [35],inactive
same,inhibition,RNA [36],inactive
same,Activity,HCC1937 [37],Active
same,ΔTm,Quadruplex RNA [9],0.1 °C
same,Activity,RNA [38],Active
same,Activity,HCC1937 [39],Active
same,Activity,HCC1937 [40],Active
same,inhibition,HCC1937 [3]; dose <= 6.0 µM,Dose-Dependent Effect
same,inhibition at 6 µM,HCC1937 [41],27.7%
same,Activity,RNA [42],inactive
same,ΔTm,RNA [43],33 °C
N=C(N)SCc1c2ccccc2cc2ccccc12,IC50,[1],9.6 µM
same,IC50,HCC1806,12.5 µM
same,IC50,[2],20.7 µM
same,IC50,HCC1937 [3],16.8 µM
same,IC50,MDA-MB-231,6 µM
N=C(N)SCc1ccc2ccccc2c1,IC50,[1],> 50 µM
same,IC50,HCC1806,> 50 µM
same,IC50,[2],> 50 µM
same,IC50,HCC1937 [3],> 50 µM
same,IC50,MDA-MB-231,> 50 µM
c1ccc([P+](Cc2c3ccccc3cc3ccccc23)(c2ccccc2)c2ccccc2)cc1,ΔTm,RNA [17],22 °C
same,Kd,Quadruplex DNA [22],> 25 µM
same,ΔTm,Quadruplex DNA [27],16.5 °C
same,Kd,RNA [44],10.6 µM
same,Kd,RNA [45],8.8 µM
same,ΔTm,Quadruplex RNA [9],0.2 °C
same,ΔTm,RNA [43],24 °C
Cc1c2ccccc2c(C[P+](c2ccccc2)(c2ccccc2)c2ccccc2)c2ccccc12,ΔTm,RNA [17],22 °C
same,Kd,Quadruplex DNA [22],> 25 µM
same,ΔTm,Quadruplex DNA [27],17 °C
same,Kd,RNA [44],9.8 µM
same,Kd,RNA [45],7.3 µM
same,ΔTm,Quadruplex RNA [9],-0.4 °C
same,ΔTm,RNA [43],25 °C
N=C(N)SCc1cccc2ccccc12,IC50,[1],> 50 µM
same,IC50,HCC1806,> 50 µM
same,IC50,[2],> 50 µM
same,IC50,HCC1937 [3],> 50 µM
same,IC50,MDA-MB-231,> 50 µM
N=C(N)SCC1c2ccccc2CCc2ccccc21,IC50,[1],> 50 µM
same,IC50,HCC1806,> 50 µM
same,IC50,[2],> 50 µM
same,IC50,HCC1937 [3],> 50 µM
same,IC50,MDA-MB-231,48 µM

# From ChEMBL document CHEMBL5543088, “Targeting G-rich sequence to regulate the transcription of murine double minute (MDM) genes in triple-negative breast cancers” (Eur J Med Chem, 2024)
